Test results published in ChEMBL document CHEMBL3526017, “Predicting the drug interaction potential of AMG 853, a dual antagonist of the D-prostanoid and chemoattractant receptor-homologous molecule expressed on T helper 2 cells receptors” (Drug Metab Dispos, 2012).

Columns and labels:
[1] = target: T1, UDP-glucuronosyltransferase 1A3 (Homo sapiens, UniProt P35503); assay: Drug metabolism assessed as human recombinant UGT1A3-mediated compound formation treated with AMG 853 at 10 uM after 30 mins by LC-MS/MS analysis; assay type: ADME; conditions: recombinant enzyme, 0.5 h
T1 sequence (P35503 whole entry): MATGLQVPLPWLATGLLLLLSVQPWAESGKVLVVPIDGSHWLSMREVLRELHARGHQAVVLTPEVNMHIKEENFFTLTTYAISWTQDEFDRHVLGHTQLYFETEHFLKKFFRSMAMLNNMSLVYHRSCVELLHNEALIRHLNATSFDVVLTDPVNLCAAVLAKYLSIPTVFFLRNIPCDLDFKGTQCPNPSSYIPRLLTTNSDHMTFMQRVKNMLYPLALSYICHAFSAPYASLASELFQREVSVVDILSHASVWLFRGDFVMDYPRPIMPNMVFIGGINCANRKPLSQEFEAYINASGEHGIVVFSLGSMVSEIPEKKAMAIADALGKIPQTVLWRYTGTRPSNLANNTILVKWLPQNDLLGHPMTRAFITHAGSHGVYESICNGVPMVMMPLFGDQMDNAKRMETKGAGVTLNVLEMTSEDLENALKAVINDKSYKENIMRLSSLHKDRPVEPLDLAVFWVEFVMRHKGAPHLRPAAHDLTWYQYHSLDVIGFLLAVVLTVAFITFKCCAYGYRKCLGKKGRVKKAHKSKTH

Liver microsome = assay: Drug metabolism in human liver microsomes treated with AMG 853 after 45 mins by LC-MS/MS analysis in presence of UDPGA; assay type: ADME; conditions: 0.75 h
Cytochrome P450 2C19 = Cytochrome P450 2C19 (Homo sapiens, UniProt P33261); assay: Drug metabolism assessed as recombinant CYP2C19 (unknown origin)-mediated 2-(4-(4-(tert-butylcarbamoyl)-2-(2-chloro-4-(1-hydroxycyclopropyl)phenylsulfonamido)phenoxy)-5-chloro-2-fluorophenyl)acetic acid formation at 10 uM after 30 mins by LC-MS/MS analysis; assay type: ADME; conditions: recombinant enzyme, 0.5 h
[2] = AUC (0 to infinity) in healthy human at 50 mg, po in presence of ketoconazole; assay type: ADME, organism-based; design: dose 50 mg, route oral, time infinity; conditions: plasma
CYP3A4 = assay: Upregulation of CYP3A4 mRNA expression in human hepatocytes at 0.3 to 30 uM treated every 24 hrs for 2 days measured on day 5 relative to control; assay type: ADME, cell-based, Hepatocyte; conditions: read-out: FC
[3] = target: T2, UDP-glucuronosyltransferase 1A1 (Homo sapiens, UniProt P22309); assay: Drug metabolism assessed as human recombinant UGT1A1-mediated (2S,3S,4S,5R,6S)-6-(2-(4-(4-(tert-butylcarbamoyl)-2-(2-chloro-4-cyclopropylphenylsulfonamido)phenoxy)-5-chloro-2-fluorophenyl)acetoxy)-3,4,5-trihydroxytetrahydro-2H-pyran-2-carboxylic acid formation at 10 uM after 30 mins by LC-MS/MS analysis; assay type: ADME; conditions: recombinant enzyme, 0.5 h
T2 sequence (P22309 whole entry): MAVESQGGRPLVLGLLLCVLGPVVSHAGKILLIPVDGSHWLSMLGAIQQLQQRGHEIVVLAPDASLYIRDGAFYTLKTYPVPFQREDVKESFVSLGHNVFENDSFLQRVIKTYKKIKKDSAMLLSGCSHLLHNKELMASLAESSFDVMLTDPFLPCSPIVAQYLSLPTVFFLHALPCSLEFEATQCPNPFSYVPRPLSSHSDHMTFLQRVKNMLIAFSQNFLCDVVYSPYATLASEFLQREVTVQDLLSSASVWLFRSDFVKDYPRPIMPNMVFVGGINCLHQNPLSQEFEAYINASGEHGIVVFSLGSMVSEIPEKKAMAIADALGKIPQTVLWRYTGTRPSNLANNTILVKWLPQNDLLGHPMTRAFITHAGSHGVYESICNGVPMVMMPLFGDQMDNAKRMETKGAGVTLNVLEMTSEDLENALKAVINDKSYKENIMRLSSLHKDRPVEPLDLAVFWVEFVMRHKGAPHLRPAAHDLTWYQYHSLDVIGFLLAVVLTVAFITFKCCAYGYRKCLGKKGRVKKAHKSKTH

Sequence of Cytochrome P450 2C19 (P33261 whole entry): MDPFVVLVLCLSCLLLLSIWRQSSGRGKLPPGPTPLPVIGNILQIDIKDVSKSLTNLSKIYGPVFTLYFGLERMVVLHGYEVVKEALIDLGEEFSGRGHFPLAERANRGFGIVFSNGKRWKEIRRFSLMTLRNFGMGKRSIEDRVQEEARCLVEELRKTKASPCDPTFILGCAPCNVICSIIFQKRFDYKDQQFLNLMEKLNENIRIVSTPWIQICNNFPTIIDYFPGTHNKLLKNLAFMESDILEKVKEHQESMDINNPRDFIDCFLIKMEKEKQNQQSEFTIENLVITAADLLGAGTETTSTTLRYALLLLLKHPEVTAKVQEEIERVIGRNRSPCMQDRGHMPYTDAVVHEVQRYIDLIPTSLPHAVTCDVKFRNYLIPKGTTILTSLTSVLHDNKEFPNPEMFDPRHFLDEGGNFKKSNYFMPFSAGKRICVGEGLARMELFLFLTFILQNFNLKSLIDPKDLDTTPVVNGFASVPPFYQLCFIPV

SMILES | Drug metabolism [1] | S50 (Liver microsome) [µM] | Vmax (Liver microsome) [pmol/min/mg] | Drug metabolism (Cytochrome P450 2C19) | AUC(0-inf) [2] [ng·h/mL] | fold induction at 48 h, up to 30 µM (CYP3A4) | Drug metabolism [3]
CC(C)(C)NC(=O)c1ccc(Oc2cc(F)c(CC(=O)O[C@@H]3O[C@H](C(=O)O)[C@@H](O)[C@H](O)[C@H]3O)cc2Cl)c(NS(=O)(=O)c2ccc(C3CC3)cc2Cl)c1 | metabolite_detected | 205.4 | 43 |  |  |  | 
CC(C)(C)NC(=O)c1ccc(Oc2cc(F)c(CC(=O)O)cc2Cl)c(NS(=O)(=O)c2ccc(C3CC3)cc2Cl)c1 [VIDUPIPRANT] |  |  |  | metabolite_detected | 800 | 1.7 | metabolite_detected
